According to patent US9585854B2, “N-acetyl-L-cysteine for use in in vitro fertilization” (IASOMAI AB, priority 2012, dated 2017):

Legend:
human spermatozoa = assay: human sperm motility bioassay (toxicity test); format: cell-based
Experimental: The eventual occurrence of NAC embryotoxicity was preliminary tested.
Assessments of human sperm motility were performed on fresh samples taken from 3 healthy donors with good seminal parameters including sperm motility and velocity. Migration or “Swim-up” on human sperm preparation medium was applied to select motile spermatozoa. After selection each semen sample was divided into 3 aliquots transferred to Eppendorf tubes. In addition to one control tube, two tubes had NAC added at concentrations of 100 and 1,000 nM. Tubes were incubated in a 5% CO2 environment, with constant temperature and humidity conditions for 24 hours. Sperm motility was assessed using a contrast phase microscope at a 400 times magnification after 1, and 24 hours of exposure to NAC. Assessment was performed over a fixed time interval of 2 minutes. Nine samples were assessed for sperm motility and velocity by 36 measurements (2 measurements at 1 and 24 h per sample).

[1] = test system: normal human epidermal keratinocytes; assay: micro array gene expression analysis (Affymetrix GeneChip); format: cell-based; conditions: vs untreated
Experimental: The present experiments were carried out to elucidate if NAC treatment influence integrin and fibronectin gene expression by gene expression analysis using the Affymetrix GeneChip platform.
A micro array based gene expression analysis of the normal human epidermal keratinocytes was performed 1 and 12 hours after addition of NAC, compared to untreated (i.e. control samples at the same time points). Data obtained from GeneChip analysis were processed using the RNA analysis approach and samples were normalized to their corresponding controls. Filtering was done based on two criteria (p-value <0.1 and >1.5 fold up- or >0.5 down-regulation) for each time point. The labelling and hybridisation was done in duplicate.

[2] = test system: Isolated uteri from virgin Wistar rats; assay: isolated organ bath study of uterine contractions; set-up: species or system rat
Experimental: Animals were kept at 22° C., housed 3 per cage and fed ad libitum. Isolated uteri from virgin Wistar rats (200-280 g) in estrous, which was determined by examination of a daily vaginal smear, were used.
Protamine sulphate (PS) and NAC were dissolved in pure water.
All rats were sacrificed by cervical dislocation. The uterine horns were excised, carefully cleaned and mounted vertically in a 10 ml volume organ bath containing De Jalon's solution (NaCl 154 mM, KCl 5.6 mM, CaCl2×2H2O 0.41 mM, NaHCO 2 5.9 mM and glucose 2.8 mM), under 1 g tension, aerated with 95% oxygen and 5% carbon dioxide at 37° C. […] After 10 min increasing concentrations of PS were added until the total cessation of contractions was observed.
Myometrial tension was recorded isometrically with an organ bath and transducer.
Effects of treatments on uterine contractions were calculated as percentages for control, untreated and contracting conditions. Each data value is expressed as the mean±SEM. differences between groups were analyzed by two-way ANOVA. EC50 values were compared using one-way ANOVA

IVF = assay: NAC administration in connection with IVF treatment (clinical outcome); format: in vivo, human
Description: To date, NAC has not been considered a drug in fertility treatment although it has been used for oral treatment of endometrioses as described in EP 2305238. In that study no conclusions about pregnancies were made. To the contrary when being treated for endometriosis it was not expected that any pregnancies could occur. […] This was one of the reasons why the present inventors started investigating whether NAC could be used in connection with IVF.
Already from the start of IVF it has been a problem that the clinical outcome in IVF treatment is low.
The composition of the present invention, comprising NAC for the treatment of IVF according to one embodiment to be administered intravenously at a dose between approximately 50 and 150 mg/kg/day.
In still another embodiment of the present invention the composition comprises NAC to be administered orally at a dose of approximately 30-45 mg/kg/day.

[3] = test system: cancer cells of epithelial origin; conditions: cited from earlier work

With CC(=O)N[C@@H](CS)C(=O)O [NAC, N-acetyl-L-cysteine] the “adverse influence on human spermatozoa” value (human spermatozoa) was “failed to show an adverse influence”, the “human sperm motility or velocity compared to controls” value (human spermatozoa; NAC 100 and 1,000 nM, 1 and 24 hours of exposure) was “no effects” and the embryotoxic effect (human spermatozoa; concentrations up to 50-fold therapeutic blood concentrations) was “failed to detect an embryotoxic effect”. For the same compound, the “integrin alpha 2 gene expression” value ([1]; 1 hr after NAC treatment) was “up-regulated”, the fibronectin gene expression ([1]; 12 hours after NAC) was “upregulated” and the “effect of pre-treatment on PS-induced relaxation” value ([2]; NAC pre-treatment 1 μg/ml, spontaneously active uteri) was “increased PS-induced relaxation”. For the same compound, the “effect of pre-treatment on PS-induced relaxation” value ([2]; calcium ion-induced uterine contractions) was “modulated PS-induced relaxation”, the live births (IVF; NAC preferably a few days prior to IVF treatment) was “higher percentage of live births” and the “effectiveness in IVF” value (IVF; intravenous, lower limit approximately 50 mg/kg/day) was “effective in IVF”. The IVF outcome (IVF; one person who had taken NAC orally for endometriosis, two previous IVF trials failed) was “successful IVF treatment”, the “effect in connection with IVF” value (IVF; oral, approximately 30-45 mg/kg/day) was “give effect in connection with IVF” and the “effect on proliferation of cancer cells of epithelial origin” value ([3]; Cell Death and Differentiation 2005) was “marked antiproliferative effect”. For the same compound, the “cell-cell and cell-substratum adhesion complexes” value ([3]; NAC-treated cancer cells) was “considerable increase”.
